We go through three compounds from paper PMC6995558, “Biological Evaluation, Molecular Docking, and SAR Studies of Novel 2-(2,4-Dihydroxyphenyl)-1H- Benzimidazole Analogues” (Biomolecules, 2019).

The target in data set [1] is T1, Acetylcholinesterase (AChE, E.C. 3.1.1.7, from human erythrocytes) (Homo sapiens, UniProt P22303).
T1 construct: Acetylcholinesterase (AChE, E.C. 3.1.1.7, from human erythrocytes); purchased Sigma-Aldrich (Steinheim, Germany); host or cells: human erythrocytes (natural source)
Description: biochemical. The data set is classed as biochemical. Particulars: for Selectivity for AChE: IC50(BuChE)/IC50(AChE); for IC50: means ± SD of three independent experiments. As to the method:
(§1) The details were described previously.
(§2) Their potency was determined using the modified Ellman’s method and expressed as the half of maximal inhibitory concentration, IC50 [34].

Data set [2] has as its target T2, butyrylcholinesterase (BuChE, E.C. 3.1.1.8, from equine serum) (Equus caballus, UniProt P81908).
T2 construct: butyrylcholinesterase (BuChE, E.C. 3.1.1.8, from equine serum); purchased Sigma-Aldrich (Steinheim, Germany); host or cells: equine serum (natural source)
Description: biochemical. Particulars: means ± SD of three experiments; read-out: BuChE IC50. As to the method: as §1, §2

Data set [3] is described as follows: RP-18 HPLC chromatography lipophilicity estimation. The class given is physicochemical. Particulars: for −S (slope): methanol/acetate buffer pH 4.0; for log kw (intercept): methanol/acetate buffer pH 4.0, extrapolated to pure water. As for the experimental part: The Eurosil Bioselect C18 (5 μm, 300 × 4.6 mm) column was used as the stationary phase. The mobile phase consisted of different volume mixtures of methanol and 20 mM acetate buffer as the aqueous phase to give pH 4.0. The organic modifier concentration ranged from 0.30 to 0.75, depending on the structure of the compound at 0.05 (0.1) intervals. The flow rate was 0.5 cm^3·min^−1 at room temperature. Measurements were made at 292 nm. The retention time of an unretained solute (t0) was determined by the injection of a small amount of acetone dissolved in water. […] This is described by the Soczewiński–Wachtmeister dependence: log k = log kw + S (% organic modifier)(1) in which log kw is the retention factor of a solute with pure water as the mobile phase (intercept) and S is the regression curve (slope). The log k values were calculated as log k = log (tR − t0)/t0, where tR is the retention time of a solute and t0 is the retention time of an unretained solute.
To find the structure–activity relationships, some quantities of the compounds were estimated (Table 5). They included the lipophilicity parameter log kw obtained by RP-HPLC and calculated in silico log P, the topological polar surface area (tPSA), and the molar refractivity (MR) (Table 5). The log kw and S parameters obtained by the extrapolation technique are commonly used as lipophilicity descriptors.

The target in data set [4] is T3, Amyloid β-peptide (1–42) (Aβ42) (Homo sapiens, UniProt P05067).
T3 construct: Amyloid β-peptide, (1–42) (Aβ42), was purchased from Aldrich; purchased Aldrich
Put plainly: biochemical. As to conditions: ThT fluorescence, 24 h at 37 °C; means ± SD of three experiments; read-out: IC50(Aβ(1–42)) self-induced aggregation. As for the experimental part: Amyloid β-peptide, (1–42) (Aβ42), was purchased from Aldrich. Aβ42 was diluted in the phosphate buffer (pH 8.0) to obtain a 125.8 µM solution. The compounds under study were first dissolved in a small amount of methanol, and then further diluted in the phosphate buffer to the final concentration of 5–160 μM. To study the Aβ42 aggregation inhibition, the fluorescence emission of thioflavin T (ThT) was followed with curcumin as the reference compound [35, 36]. At first, the Aβ42 (10 μL) samples and the tested compounds (10 μL) were diluted with the phosphate buffer (60 μL) and then they were incubated for 24 h at 37 °C without stirring. As for the control, a sample of the peptide was incubated without the inhibitor. The tests were carried out in black, flat-bottom, 96-well plates. Then 20 µL of 2.5 µM ThT in 50 mM glycine–NaOH (pH 8.5) was added and incubated for 5 min. Fluorescence was monitored with the excitation at 446 nm and the emission at 490 nm. A time scan of fluorescence was performed and the intensity values reached the plateau (300 s). […]. The reported values were obtained as the mean ± SD of triplicate of three independent experiments.
Nowadays, the amyloid hypothesis has become the dominating paradigm for understanding AD [44]. Aβ(1–42) is the most amyloidogenic Aβ fragment found in the AD plaques. […].

The nature of data set [5]: In vitro antioxidant activity assay (DPPH radical scavenging). As to conditions: DPPH 100 μM in methanol, 37 °C, 30 min; means ± SD of three experiments; read-out: IC50(DPPH) radical scavenging effect. As to the method:
Antioxidant activity of each compound and standards (rutin) was assessed based on the radical scavenging effect of stable DPPH free radical. An amount of 10 μL of each tested compound or standard series of different concentrations (from 0.0 to 100 µM) was added to 9 mL of methanol solution of 2,2-diphenyl-1-picrylhydrazyl (DPPH) (100 μM). After incubation at 37 °C for 30 min, decrease in the absorbance of each solution was measured at 520 nm. The absorbance of the blank sample containing the same amount of DMSO and DPPH solution was also prepared and measured. All experiments were conducted in triplicate. The scavenging potential was compared with a solvent control (0% radical scavenging) and the standard compound. Radical scavenging activity (%AA) was calculated by the following formula: (%AA) = [(A0 − A1)/A0] × 100%(3) in which (A0) is the absorbance of the blank sample and (A1) is the absorbance of the tested compound (t = 30 min).
Reactive oxygen species are a causal factor in the process of aging and the cumulative damage has been associated with AD [45]. In this study, the DPPH radical scavenging activity of the newly synthesized compounds was estimated using the Brand-Williams method.
Background: Loss of DPPH colour is used to gauge radical scavenging.

The target in a further data set is T4, AChE (Homo sapiens, UniProt P22303).
T4 construct: Acetylcholinesterase (AChE, E.C. 3.1.1.7, from human erythrocytes); purchased Sigma-Aldrich (Steinheim, Germany); host or cells: human erythrocytes (natural source)
Description: Kinetic characterization of AChE inhibition (Lineweaver–Burk). As to conditions: for υmax: AChE; for Type of AChE inhibition: Lineweaver–Burk plots analysis. The data set is classed as biochemical. As for the experimental part:
The kinetic analysis was evaluated according to the Ellman’s method. Plots of 1/velocity versus the reciprocal substrate concentration were constructed at different final concentrations of the ATC iodide in the range of 100–10 µM. […] The tested medium contained DTNB solution (0.4 mg/mL), AChE solution (2 U/mL) or BuChE solution (4 U/mL), solution of the examined compound, and different concentrations of the ATC iodide substrate solution. Absorbance was detected at 412 nm at room temperature after 7 min. The obtained data were calculated and presented on the Lineweaver–Burk plot. The determined the Michaelis-Menten constant (KM) and the maximum velocity of the enzyme (υmax) values were used to define the type of enzyme inhibition.
The mechanism of AChE inhibition was investigated for inhibitors 1 and 5 as the most valuable compounds. […]

The next data set addresses T5, BuChE (Equus caballus, UniProt P81908).
T5 construct: butyrylcholinesterase (BuChE, E.C. 3.1.1.8, from equine serum); purchased Sigma-Aldrich (Steinheim, Germany); host or cells: equine serum (natural source)
Put plainly: Kinetic characterization of BuChE inhibition (Lineweaver–Burk). The class given is biochemical. As to conditions: for υmax: BuChE; for Mechanism of BuChE inhibition: Lineweaver–Burk plots analysis. As to the method: The kinetic analysis was evaluated according to the Ellman’s method. Plots of 1/velocity versus the reciprocal substrate concentration were constructed at different final concentrations of the ATC iodide in the range of 100–10 µM. The studies were carried out using the final concentrations of 1 inhibitor: (AChE: 0.25, 1.0 µM; BuChE: 0.25, 1.2 µM) and 5 (AChE: 0.1, 1.0 µM; BuChE: 0.25, 0.55 µM) and without it. The tested medium contained DTNB solution (0.4 mg/mL), AChE solution (2 U/mL) or BuChE solution (4 U/mL), solution of the examined compound, and different concentrations of the ATC iodide substrate solution. Absorbance was detected at 412 nm at room temperature after 7 min. The obtained data were calculated and presented on the Lineweaver–Burk plot. The determined the Michaelis-Menten constant (KM) and the maximum velocity of the enzyme (υmax) values were used to define the type of enzyme inhibition.
The mechanism of AChE inhibition was investigated for inhibitors 1 and 5 as the most valuable compounds. The Lineweaver–Burk plots present 1/velocity versus 1/substrate concentrations in the range of 100–10 µM for compounds 5 (0.1, 1.0 µM) and 1 (0.25, 1.0 µM) and without inhibitors (0 µM) (Figure 2).

[6] abbreviates: inhibitor concentration 0.25 µM.

By IC50 is commonly meant the midpoint of a concentration-inhibition curve.

T3 sequence (P05067 672-713 limits assumed): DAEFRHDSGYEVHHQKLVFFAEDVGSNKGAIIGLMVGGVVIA
T5 sequence (P81908 whole entry): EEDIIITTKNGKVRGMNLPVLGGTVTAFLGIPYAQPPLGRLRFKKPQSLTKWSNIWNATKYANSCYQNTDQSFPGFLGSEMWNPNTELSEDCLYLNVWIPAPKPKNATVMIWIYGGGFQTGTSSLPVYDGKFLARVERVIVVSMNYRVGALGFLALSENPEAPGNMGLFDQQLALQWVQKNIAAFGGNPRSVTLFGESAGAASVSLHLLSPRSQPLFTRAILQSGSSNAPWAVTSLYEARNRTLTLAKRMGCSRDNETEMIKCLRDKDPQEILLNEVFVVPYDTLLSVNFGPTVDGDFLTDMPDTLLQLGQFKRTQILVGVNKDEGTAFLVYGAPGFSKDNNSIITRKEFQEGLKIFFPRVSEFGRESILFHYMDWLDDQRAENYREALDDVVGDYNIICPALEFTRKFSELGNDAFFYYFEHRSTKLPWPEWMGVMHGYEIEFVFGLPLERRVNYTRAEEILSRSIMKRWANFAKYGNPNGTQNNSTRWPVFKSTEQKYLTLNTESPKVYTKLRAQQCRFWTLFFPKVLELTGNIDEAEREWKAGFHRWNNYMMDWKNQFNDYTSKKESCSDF
T2 sequence (P81908 whole entry): as above
T4 sequence (P22303 32-617 isoform P22303-2 limits assumed): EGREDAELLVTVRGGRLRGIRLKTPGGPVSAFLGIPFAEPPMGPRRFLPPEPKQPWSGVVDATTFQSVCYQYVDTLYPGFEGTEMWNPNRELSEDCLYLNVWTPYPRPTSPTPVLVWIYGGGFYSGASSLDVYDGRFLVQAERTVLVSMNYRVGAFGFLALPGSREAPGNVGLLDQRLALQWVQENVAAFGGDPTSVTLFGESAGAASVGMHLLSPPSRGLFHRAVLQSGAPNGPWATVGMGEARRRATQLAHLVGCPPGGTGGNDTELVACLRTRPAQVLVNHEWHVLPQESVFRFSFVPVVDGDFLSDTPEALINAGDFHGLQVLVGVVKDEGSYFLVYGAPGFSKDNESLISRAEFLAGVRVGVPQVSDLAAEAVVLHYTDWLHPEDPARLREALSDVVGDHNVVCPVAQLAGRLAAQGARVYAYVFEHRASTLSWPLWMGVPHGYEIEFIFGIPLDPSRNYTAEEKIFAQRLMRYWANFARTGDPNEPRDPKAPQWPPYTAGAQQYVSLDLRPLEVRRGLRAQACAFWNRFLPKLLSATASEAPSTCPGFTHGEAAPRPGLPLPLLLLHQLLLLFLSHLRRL
T1 sequence (P22303 32-617 isoform P22303-2 limits assumed): as above

For the compound `COc1ccc2nc(-c3cc(Cl)c(O)cc3O)[nH]c2c1` [Compound 6, 4-(6-Methoxy-1H-benzimidazol-2-yl)-6-chlorobenzene-1,3-diol], in data set [1], the “Selectivity for AChE with respect to BuChE (in words)” value is reported as “highly selective”, the “Selectivity for AChE” value was 203.4 and the IC50 came to 92 ± 2 nM. In addition, in data set [2], the half-inhibitory concentration (IC50) was 18710 ± 173 nM. Moreover, in data set [3], the “−S (slope)” value is given as 5.390 and the “log kw (intercept)” value is on record as 4.808. The IC50 in data set [4] turned out to be 27000 ± 2290 nM. Moreover, in data set [5], the concentration for half-maximal inhibition (IC50) amounted to 362 ± 10 nM.

As for `COc1ccc2nc(-c3ccc(O)c(C)c3O)[nH]c2c1` [Compound 5, 4-(6-Methoxy-1H-benzimidazol-2-yl)-2-methylbenzene-1,3-diol], in data set [1], the “Activity against AChE (in words)” value is “active”. For the same compound, in data set [1], the “Selectivity for AChE” value was found to be 1.4. The concentration for half-maximal inhibition (IC50) in data set [1] is 86 ± 21 nM; in data set [2], 117 ± 41 nM; in data set [4], 33100 ± 2070 nM; in data set [5], 627 ± 110 nM. For the same compound, in data set [3], the “−S (slope)” value was 5.179. In data set [3], the “log kw (intercept)” value is listed as 4.591. The υmax came to 175.44 A min^−1 at AChE (inhibitor concentration 0.15 μM), 120.48 A min^−1 at AChE (inhibitor concentration 1.0 μM), 196.08 A min^−1 on BuChE (setting [6]) and 178.57 A min^−1 at BuChE (inhibitor concentration 0.55 µM). For the same compound, the “Type of AChE inhibition” value at AChE was “mixed type of inhibition”. Moreover, the “Mechanism of BuChE inhibition” value on BuChE is listed as “the same relationships as in the case of AChE”.

Consider `Oc1cc(O)c(-c2nc3ccccc3[nH]2)cc1Cl` [Compound 1, 4-(1H-benzimidazol-2-yl)-6-chlorobenzene-1,3-diol], for which the “Activity against AChE (in words)” value in data set [1] is “active”. Further, the “Selectivity for AChE” value in data set [1] was determined as 55.8. The IC50 in data set [1] stood at 76 ± 2 nM; in data set [2], 4240 ± 205 nM; in data set [4], 48000 ± 3430 nM; in data set [5], 641 ± 30 nM. In data set [3], the “−S (slope)” value was 3.896. The “log kw (intercept)” value in data set [3] was 3.602. Also, the υmax on AChE (inhibitor concentration 0.25 μM) came to 135.14 A min^−1; at AChE (inhibitor concentration 1.0 μM), 105.26 A min^−1; on BuChE (setting [6]), 322.58 A min^−1; at BuChE (inhibitor concentration 1.2 µM), 163.93 A min^−1. Further, the “Type of AChE inhibition” value on AChE is “mixed type of inhibition”. Moreover, on BuChE, the “Mechanism of BuChE inhibition” value was “the same relationships as in the case of AChE”.
